US8835476B2, “Synthesis of novel antimicrobials” (priority 2005, dated 2014)

Key:
recombinant E. coli LpxA = molecular target: T1, recombinant E. coli LpxA (Escherichia coli, UniProt P0A722); test: LpxA assay: acyl-UDP-GlcNAc formation from UDP-[3H]GlcNAc, TLC; format: biochemical; details: 5 mM compound; FIG. 8
T1 construct: 6xHis (C); made in house; host or cells: E. coli BL21 (pET23b)
Text: The lpxA gene was amplified from an E. coli genomic library and inserted into a pET23b vector using standard recombinant DNA methodology. The 5′ oligonucleotide for amplification of the LpxA open reading frame was 5′-[…]-3′ (SEQ ID NO. 1) and contains a BamHI restriction enzyme site upstream of the LpxA ATG start codon and the 3′ oligonucleotide was 5′-[…]-3′ (SEQ ID NO. 2) and contains a XhoI restriction enzyme site downstream of the final codon of the LpxA open reading frame. Primers were custom synthesized. The primers were designed such that digestion of the amplification product would result in addition of a C-terminal 6×-His tag in frame with the LpxA open reading frame. Specifically, E. coli genomic DNA was isolated and an amplification reaction was carried out as follows: 33 μl water, 5 μl 10× reaction buffer, 1.5 μl of 50 mM magnesium sulfate, 3 μl of 10 mM dNTPs, 3 μl of a 50 μM solution of the 5′ LpxA primer, 3 μl of a 50 μM solution of the 3′ LpxA primer, 0.5 μl of E. coli genomic DNA solution, and 1 μl of polymerase. The reaction conditions were as follows: 94° C. for 2 minutes; followed by 30 cycles of 94° C. for 30 seconds, 50° C. for 30 seconds, 68° C. for 1.5 minutes, followed by an extension at 68° C. for 7 minutes. The resulting LpxA product was separated from other DNA on a 0.8% agarose gel and isolated from the gel. The LpxA open reading frame was cloned into a topoisomerase I-activated vector and transformed into E. coli. […] The newly synthesized plasmid containing the BamHI- and XhoI-flanked LpxA open reading frame and plasmid pET23a were digested with BamHI and XhoI at 37° C. for 2 hours, DNA was separated by agarose gel electrophoresis, isolated from the gel, and ligated. Ligation reactions were transformed into chemically competent E. coli and plasmid DNA was isolated. Restriction mapping was performed to determine which plasmids contained the LpxA open reading frame. To remove the T7 epitope coding sequence from the 5′end of the LpxA open reading frame, the pET23a plasmid containing the LpxA open reading frame was digested with the restriction enzymes BamHI and XhoI and a pET23b plasmid was digested with BglII and XhoI, DNA was separated by agarose gel electrophoresis, isolated from the gel, and ligated. Ligation reactions were transformed into chemically competent E. coli and plasmid DNA was isolated. Restriction mapping was performed to assess plasmids containing the LpxA open reading frame.
A 5 ml culture of E. Coli BL21 cells expressing the LpxA-6×His plasmid was grown overnight at 37° C. in LB medium containing 50 μg/ml ampicillin and 34 μg/ml chloramphenicol, then subcultured into 500 ml of the same medium and grown at 37° C. until A600=0.6. LpxA expression was induced by addition of 0.5 mM IPTG for three hours. The cells were centrifuged at 7 000×g for 10 minutes at 4° C. and lysed using a mild, nonionic detergent. The soluble fraction containing LpxA was added to 1 ml of nickel affinity resin in a 15 ml Falcon tube; the resin was washed extensively with extraction/wash buffer (50 mM Na-phosphate (pH 7.0) and 300 mM NaCl) prior to use. This mixture was incubated on a rotating platform at low speed for 20 minutes at room temperature. The resin was centrifuged at 1000 rpm in a bench top centrifuge for 2 min, washed twice (10 min each) with 10 ml of extraction/wash buffer, resuspended in 10 ml of extraction/wash buffer, and transferred to a 10 ml polypropylene disposable protein purification column. The column was eluted with 5 ml of 50 mM Na-phosphate (pH 7.0) containing 300 mM NaCl and 150 mM imidazole, collected in 1 ml fractions. The eluate was analysed by SDS-PAGE and was visualised using a protein stain (FIG. 7 inset).
Recombinant Vibrio harveyi acyl carrier protein was prepared from a GST fusion protein as described previously (Flaman et al., 2001). […]

[1] = test system: LPS synthesis in E. coli strain D22; test: In vivo LPS synthesis: [3H]galactose incorporation into acid-precipitable material; format: cell-based
Procedure: LpxA catalyzes the first step in the synthesis of lipid A (the hydrophobic anchor of LPS), which is essential for the growth and pathogenesis of many gram-negative bacteria. The inhibition of LpxA activity would therefore result in decreased synthesis of LPS. To measure the synthesis of LPS in vivo, the incorporation of radiolabelled galactose into acid-precipitable material was determined. The E. coli strain used for these studies was D22 (obtained from the E. coli Genetic Stock Center), which contains a mutation in the LpxC gene (lpxC101; Normark et al., 1969, J Bacteriol 97, 1334). Strains harbouring this mutation have an increased susceptibility to antibiotics, in addition to producing approximately 30% less LPS (Grundstrom et al., 1980, J Bacteriol 144, 884.). Bacteria were grown in Luria broth to early-log phase, at which point, 500 μl was transferred to a culture tube containing 1 μl of [^3H]galactose (final concentration, 0.2 mM, 20 μCi/μmol) and mixed. Cultures were incubated at 30° C. for 75 minutes with shaking at 220 rpm. Incorporation was terminated by adding 400 μl of labelled culture to 44.4 μl of 100% trichloroacetic acid (TCA, 10% final concentration) in a 1.5 ml microcentrifuge tube. Tubes were vortexed, incubated on ice for 30 minutes, then centrifuged at 14 000 rpm for 5 minutes at room temperature. The pellet was rinsed twice with 1 ml of ice-cold 10% TCA, resuspended in 50 μl of formic acid, and transferred to a scintillation vial for counting.
Compounds to be tested were dissolved in DMSO and added to the bacterial culture prior to labelling with galactose, and LPS synthesis was determined as described previously. The final concentration of DMSO (1%, v/v) had minimal effect on LPS synthesis.

T1 sequence (P0A722 whole entry): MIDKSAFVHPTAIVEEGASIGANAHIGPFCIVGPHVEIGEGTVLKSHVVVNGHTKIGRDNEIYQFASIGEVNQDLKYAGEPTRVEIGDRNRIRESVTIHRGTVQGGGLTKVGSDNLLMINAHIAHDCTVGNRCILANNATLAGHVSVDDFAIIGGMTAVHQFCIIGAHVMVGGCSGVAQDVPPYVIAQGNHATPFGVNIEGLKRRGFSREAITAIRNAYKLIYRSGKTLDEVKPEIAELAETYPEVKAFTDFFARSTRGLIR

SMILES	inhibition at 5000 µM (recombinant E. coli LpxA)	decrease of LPS synthesis ([1]; 0.1 mM, FIG. 10B)	decrease of LPS synthesis ([1]; 1 mM, FIG. 10A)
COc1ccc(-c2cc(-c3nnn[nH]3)c(-c3ccc(OC)cc3)s2)cc1 [DNM-131D, 5-(2,5-Bis(4-methoxyphenyl)thiophen-3-yl)-1H-tetrazole]	> 80%	~50%	–
CCOC(=O)c1cccc(-c2cc(-c3nnn[nH]3)c(-c3cccc(C(=O)OCC)c3)s2)c1 [DNM-131I, 5-(2,5-Bis(3-(ethoxylcarbonyl)phenyl)thiophen-3-yl)-1H-tetrazole]	> 80%	–	~80%
